Test results from the NIST ThermoML archive (doi:10.1016/j.jct.2008.11.008).
Numbers after ± are expanded uncertainties.

Test: molar enthalpy of vaporization or sublimation
Details: 298.15 K; Liquid; Calvet microcalorimetry

Row | Compound | molar enthalpy [kcal/mol]
1 | COc1ccccc1Br [1-bromo-2-methoxybenzene] | 14.8 ± 0.621
2 | COc1cccc(Br)c1 [1-bromo-3-methoxybenzene] | 13.9 ± 0.574
3 | COc1ccc(Br)cc1 [1-bromo-4-methoxybenzene] | 13.9 ± 0.574
